Experimental data published in patent US12071441B2, “10-(di(phenyl)methyl)-4-hydroxy-8,9,9A,10-tetrahydro-7H-pyrrolo[1′,2′:4,5]pyrazino[1,2-b]pyridazine-3,5-dione derivatives and related compounds as inhibitors of the orthomyxovirus replication for treating influenza” (Novartis AG, priority 2018, dated 2024).

Tests used:
Test in all cases: microbe, parasite or virus in culture
Type in all cases: cell-based
[1] = test system: influenza A virus minigenome (PB2, PB1, PA, NP; luciferase reporter) in 293T cells, RNP_Alaska; conditions: HEK-293T, 48 h
[2] = test system: influenza A virus minigenome (PB2, PB1, PA, NP; luciferase reporter) in 293T cells, RNP_Hubei; conditions: HEK-293T, 48 h
[3] = test system: influenza A virus minigenome (PB2, PB1, PA, NP; luciferase reporter) in 293T cells, RNP_CAL; conditions: HEK-293T, 48 h, read-out: RNP_CAL_EC50

Measured: EC50

CCC(=O)Oc1c2n(ncc1=O)[C@@H]([C@H](c1cccc(F)c1)c1cccc(F)c1F)[C@H]1CCCN1C2=O [Example 106, (9aR,10S)-10-((R)-(2,3-difluorophenyl)(3-fluorophenyl)methyl)-3,5-dioxo-3,5,8,9,9a,10-hexahydro-7H-pyrrolo[1′,2′:4,5]pyrazino[1,2-b]pyridazin-4-yl propionate]
< 0.1 µM: all assays above

CC(C)C(=O)Oc1c2n(ncc1=O)[C@@H]([C@H](c1cccc(F)c1)c1cccc(F)c1F)[C@H]1CCCN1C2=O [Example 107, (9aR,10S)-10-((R)-(2,3-difluorophenyl)(3-fluorophenyl)methyl)-3,5-dioxo-3,5,8,9,9a,10-hexahydro-7H-pyrrolo[1′,2′:4,5]pyrazino[1,2-b]pyridazin-4-yl isobutyrate]
< 0.1 µM: all assays above

CC(C)C(=O)OCOc1c2n(ncc1=O)[C@@H]([C@H](c1cccc(F)c1)c1cccc(F)c1F)[C@H]1CCCN1C2=O [Example 108, (((9aR,10S)-10-((R)-(2,3-difluorophenyl)(3-fluorophenyl)methyl)-3,5-dioxo-3,5,8,9,9a,10-hexahydro-7H-pyrrolo[1′,2′:4,5]pyrazino[1,2-b]pyridazin-4-yl)oxy)methyl isobutyrate]
< 0.1 µM: all assays above

CC(C)CC(=O)Oc1c2n(ncc1=O)[C@@H]([C@H](c1cccc(F)c1)c1cccc(F)c1F)[C@H]1CCCN1C2=O [Example 110, (9aR,10S)-10-((R)-(2,3-difluorophenyl)(3-fluorophenyl)methyl)-3,5-dioxo-3,5,8,9,9a,10-hexahydro-7H-pyrrolo[1′,2′:4,5]pyrazino[1,2-b]pyridazin-4-yl 3-methylbutanoate]
< 0.1 µM: all assays above

COCCC(=O)Oc1c2n(ncc1=O)[C@@H]([C@H](c1cccc(F)c1)c1cccc(F)c1F)[C@H]1CCCN1C2=O [Example 112, (9aR,10S)-10-((R)-(2,3-difluorophenyl)(3-fluorophenyl)methyl)-3,5-dioxo-3,5,8,9,9a,10-hexahydro-7H-pyrrolo[1′,2′:4,5]pyrazino[1,2-b]pyridazin-4-yl 3-methoxypropanoate]
< 0.1 µM: all assays above

CC(=O)OCOc1c2n(ncc1=O)[C@@H]([C@H](c1cccc(F)c1)c1cccc(F)c1F)[C@H]1CCCN1C2=O [Example 114, (((9aR,10S)-10-((R)-(2,3-difluorophenyl)(3-fluorophenyl)methyl)-3,5-dioxo-3,5,8,9,9a,10-hexahydro-7H-pyrrolo[1′,2′:4,5]pyrazino[1,2-b]pyridazin-4-yl)oxy)methyl acetate]
< 0.1 µM: all assays above

COC(=O)Oc1c2n(ncc1=O)[C@@H]([C@H](c1cccc(F)c1)c1cccc(F)c1F)[C@H]1CCCN1C2=O [Example 115, (9aR,10S)-10-((R)-(2,3-difluorophenyl)(3-fluorophenyl)methyl)-3,5-dioxo-3,5,8,9,9a,10-hexahydro-7H-pyrrolo[1′,2′:4,5]pyrazino[1,2-b]pyridazin-4-yl methyl carbonate]
< 0.1 µM: all assays above

Cc1oc(=O)oc1COc1c2n(ncc1=O)[C@@H]([C@H](c1cccc(F)c1)c1cccc(F)c1F)[C@H]1CCCN1C2=O [Example 116, (9aR,10S)-10-((R)-(2,3-difluorophenyl)(3-fluorophenyl)methyl)-4-((5-methyl-2-oxo-1,3-dioxol-4-yl)methoxy)-8,9,9a,10-tetrahydro-7H-pyrrolo[1′,2′:4,5]pyrazino[1,2-b]pyridazine-3,5-dione]
< 0.1 µM: all assays above
